# In patent US12655116B2, “Substituted isophthalic acid diamides” (Bayer Aktiengesellschaft, priority 2020, dated 2026):
# Legend:
# MATIN [1] = assay: Post-emergence herbicidal action against MATIN; type: in vivo, Matricaria inodora; settings: Tripleurospermum inodorum, 504 h, dosage 20 g/ha
# Outline: (§1)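 Foliar application at one-leaf stage of formulated test compounds, aqueous spray at 600–800 l/ha with 0.2% wetting agent. Greenhouse, optimal conditions, ~3 weeks; damage scored visually in % relative to untreated plants.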
# ALOMY [2] = assay: Pre-emergence herbicidal action against ALOMY; type: in vivo, Alopecurus myosuroides; settings: Alopecurus myosuroides, 504 h, pre-emergence
# Outline: (§2)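 Greenhouse pots of sandy loam held seeds covered with soil, onto which the compound was applied before emergence. An aqueous suspension or emulsion of WP or EC was used at 600 to 800 l/ha with 0.2% wetting agent. Percent damage was judged visually at 3 weeks.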
# MATIN [3] = assay: Pre-emergence herbicidal action against MATIN; type: in vivo, Matricaria inodora; settings: Tripleurospermum inodorum, 504 h
# Outline: as §2
# PHBPU = assay: Post-emergence herbicidal action against PHBPU; type: in vivo, Pharbitis purpurea; settings: Ipomoea purpurea, 504 h
# Outline: as §1
# SETVI [4] = assay: Pre-emergence herbicidal action against SETVI; type: in vivo, Setaria viridis; settings: Setaria viridis, 504 h, dosage 80 g/ha
# Outline: as §2
# ABUTH [5] = assay: Post-emergence herbicidal action against ABUTH; type: in vivo, Abutilon theophrasti; settings: Abutilon theophrasti, 504 h, visual assessment about 3 weeks after treatment vs untreated controls
# Outline: as §1
# HORMU [6] = assay: Post-emergence herbicidal action against HORMU; type: in vivo, Hordeum murinum; settings: Hordeum murinum, 504 h, dosage 20 g/ha
# Outline: as §1
# AMARE = assay: Pre-emergence herbicidal action against AMARE; type: in vivo, Amaranthus retroflexus; settings: Amaranthus retroflexus, 504 h, scored visually after 3 weeks vs untreated controls, 100% = plants have died, 0% = like control plants
# Outline: as §2
# ALOMY [7] = assay: Post-emergence herbicidal action against ALOMY; type: in vivo, Alopecurus myosuroides; settings: Alopecurus myosuroides, 504 h, dosage 20 g/ha, visual assessment about 3 weeks after treatment vs untreated controls
# Outline: as §1
# VERPE [8] = assay: Post-emergence herbicidal action against VERPE; type: in vivo, Veronica persica; settings: Veronica persica, 504 h, 20 g/ha
# Outline: as §1
# STEME [9] = assay: Pre-emergence herbicidal action against STEME; type: in vivo, Stellaria media; settings: Stellaria media, 504 h
# Outline: as §2
# VIOTR = assay: Post-emergence herbicidal action against VIOTR; type: in vivo, Viola tricolor; settings: Viola tricolor, 504 h, 20 g/ha
# Outline: as §1
# SETVI [10] = assay: Post-emergence herbicidal action against SETVI; type: in vivo, Setaria viridis; settings: Setaria viridis, 504 h
# Outline: as §1
# LOLRI = assay: Pre-emergence herbicidal action against LOLRI; type: in vivo, Lolium rigidum; settings: Lolium rigidum, 504 h, 80 g/ha
# Outline: as §2
# ABUTH [11] = assay: Pre-emergence herbicidal action against ABUTH; type: in vivo, Abutilon theophrasti; settings: Abutilon theophrasti, 504 h
# Outline: as §2
# HORMU [12] = assay: Pre-emergence herbicidal action against HORMU; type: in vivo, Hordeum murinum; settings: Hordeum murinum, 504 h; 80 g/ha, pre-emergence
# Outline: as §2
# STEME [13] = assay: Post-emergence herbicidal action against STEME; type: in vivo, Stellaria media; settings: Stellaria media, 504 h
# Outline: as §1
# VERPE [14] = assay: Pre-emergence herbicidal action against VERPE; type: in vivo, Veronica persica; settings: Veronica persica, 504 h, dosage 80 g/ha
# Outline: as §2
# AVEFA [15] = assay: Post-emergence herbicidal action against AVEFA; type: in vivo, Avena fatua; settings: Avena fatua, 504 h, 20 g/ha, visual assessment about 3 weeks after treatment, 100% = plants have died, 0% = like control plants
# Outline: as §1
# POLCO [16] = assay: Pre-emergence herbicidal action against POLCO; type: in vivo, Polygonum convolvulus; settings: Fallopia convolvulus, 504 h
# Outline: as §2
# ECHCG = assay: Post-emergence herbicidal action against ECHCG; type: in vivo, Echinochloa crus-galli; settings: Echinochloa crus-galli, 504 h
# Outline: as §1
# POLCO [17] = assay: Post-emergence herbicidal action against POLCO; type: in vivo, Polygonum convolvulus; settings: Fallopia convolvulus, 504 h, dosage 20 g/ha
# Outline: as §1
# AVEFA [18] = assay: Pre-emergence herbicidal action against AVEFA; type: in vivo, Avena fatua; settings: Avena fatua, 504 h, pre-emergence
# Outline: as §2
# [19] = 80 g/ha, scored visually after 3 weeks vs untreated controls (100% = plants have died, 0% = like control plants)
# [20] = 20 g/ha, scored visually after 3 weeks, 100% = plants have died, 0% = like control plants
smiles,measurement,setting,value
CCn1nnnc1NC(=O)c1ccc(Cl)c(C(=O)NC2CC2)c1Cl [Example 2-173],pest or weed control at 20 g/ha,MATIN [1],100%
same,pest or weed control at 80 g/ha,ALOMY [2]; [19],100%
same,pest or weed control at 20 g/ha,ALOMY [2]; [20],100%
same,pest or weed control at 20 g/ha,MATIN [3]; dosage 20 g/ha,100%
same,pest or weed control at 80 g/ha,MATIN [3]; dosage 80 g/ha,100%
same,pest or weed control at 5 g/ha,PHBPU; dosage 5 g/ha,80%
same,pest or weed control at 20 g/ha,PHBPU; dosage 20 g/ha,90%
same,pest or weed control at 80 g/ha,SETVI [4],100%
same,pest or weed control at 5 g/ha,ABUTH [5]; dosage 5 g/ha,90%
same,pest or weed control at 20 g/ha,ABUTH [5]; dosage 20 g/ha,100%
same,pest or weed control at 20 g/ha,HORMU [6],100%
same,pest or weed control at 20 g/ha,AMARE; 20 g/ha,100%
same,pest or weed control at 80 g/ha,AMARE; 80 g/ha,100%
same,pest or weed control at 20 g/ha,ALOMY [7],100%
same,pest or weed control at 20 g/ha,VERPE [8],80%
same,pest or weed control at 20 g/ha,STEME [9]; dosage 20 g/ha,100%
same,pest or weed control at 80 g/ha,STEME [9]; dosage 80 g/ha,100%
same,pest or weed control at 20 g/ha,VIOTR,100%
same,pest or weed control at 5 g/ha,SETVI [10]; dosage 5 g/ha,100%
same,pest or weed control at 20 g/ha,SETVI [10]; dosage 20 g/ha,100%
same,pest or weed control at 80 g/ha,LOLRI,90%
same,pest or weed control at 80 g/ha,ABUTH [11]; [19],100%
same,pest or weed control at 20 g/ha,"ABUTH [11]; dosage 20 g/ha, scored visually after 3 weeks vs untreated controls, 100% = plants have died, 0% = like control plants, read-out: Pre-emergence action against ABUTH (herbicidal activity in percent)",90%
same,pest or weed control at 80 g/ha,HORMU [12],100%
same,pest or weed control at 20 g/ha,STEME [13]; 20 g/ha,100%
same,pest or weed control at 5 g/ha,STEME [13]; dosage 5 g/ha,100%
same,pest or weed control at 80 g/ha,VERPE [14],80%
same,pest or weed control at 20 g/ha,AVEFA [15],100%
same,pest or weed control at 20 g/ha,POLCO [16]; dosage 20 g/ha,90%
same,pest or weed control at 80 g/ha,POLCO [16]; dosage 80 g/ha,100%
same,pest or weed control at 5 g/ha,ECHCG; dosage 5 g/ha,80%
same,pest or weed control at 20 g/ha,ECHCG; dosage 20 g/ha,90%
same,pest or weed control at 20 g/ha,POLCO [17],90%
same,pest or weed control at 80 g/ha,AVEFA [18]; 80 g/ha,100%
same,pest or weed control at 20 g/ha,AVEFA [18]; [20],90%
